In US20240251785A1, “SMALL MOLECULE ANTAGONISTS AND AGONISTS OF ARTHROPOD KININ RECEPTORS FOR PEST CONTROL” (The Texas A&M University System, priority 2021, published 2024):
Like-named read-outs stand apart in the source and are kept apart here. Where no end group is shown, it is not given here.

Experiments:
[1] = system: Human dermal fibroblasts (HDF) cells; assay: Cytotoxicity assay (resazurin); type: cell-based; conditions: Human dermal fibroblasts cells; tested at 20 μcool L^−1
[2] = system: vector-only (V/O) CHO-K1 cells; assay: Dose-response dual-addition calcium fluorescence assay on vector-only cells; type: cell-based
[3] = system: R. microplus kinin receptor; assay: High-throughput dual-addition calcium fluorescence screen on BMLK3 cells; type: cell-based, Rhipicephalus microplus; conditions: compound 2 μmol L^−1, 5 min, then FFFSWGa 500 nmol L^−1
[4] = molecular target: recombinant tick kinin receptor (BMLK3) (Rhipicephalus microplus, UniProt Q9NHA4); assay: Dose-response dual-addition calcium fluorescence assay on BMLK3 cells; type: cell-based; conditions: for EC50: read-out: BMLK3 EC50; for activity type in dose-response assay, in words: Rhimi-K-1 1 μmol L^−1
[5] = system: isolated hindguts from females of the mosquito Aedes aegypti; assay: Hindgut contraction inhibition assay; conditions: for effect on hindgut contraction elicited by 1728, in words: compound 100 μmol L^−1, 5 min, then 1728 10 μmol L^−1, 1 h
Experimental: A mosquito colony of Ae. aegypti (Diptera: Culicidae), Liverpool strain, was maintained at 26.5° C. in a 16 h:8 h, light:dark photoperiod and provided with 10% sugar water, as described previously.^31 For the experiment, 3-5-day-old females were used, and the assay was modified based on our previous protocol.^33 A group of six female mosquitoes were cold-anesthetized on a Petri dish placed on ice, where both wings were removed. Mosquitoes became active when the plate was removed from the ice. The dissection dish was filled with Ringer's solution (150 mmol L^−1 NaCl, 25 mmol L^−1 HEPES, 3.4 mmol L^−1 KCl, 7.5 mmol L^−1 NaOH, 1.8 mmol L^−1 NaHCO3. 1 mmol L^−1 MgSO4, 1.7 mmol L^−1 CaCl2 and 5 mmol L^−1 glucose, pH 7.1) at room temperature. To dissect the hindgut of each mosquito, their head and thorax were removed with forceps, and the abdomen was submerged in the Ringer solution. The hindgut, ovaries and Malpighian tubules (MTs), and midgut were taken out by pulling the last segment of the abdomen under the Ringer solution. Then, the ovaries and the majority of the midgut were removed using scissors leaving the intact hindgut and MTs. The isolated tissue was transferred with forceps, gripping on the cuticle of the last segment, into a drop of 30 μL Ringer solution in a 12-well-plate (Greiner Bio-One®, 665,102). After six mosquitoes were dissected as a group, paraffin oil (1-2 mL) was added to each well to cover the saline. The cuticle of the last abdominal segment was drawn out of the Ringer solution into the oil for better observation of the hindgut contraction. The tissues were filmed using an Olympus SZ60 camera (Olympus America Inc., Center Valley, PA, USA) mounted on a dissecting microscope.
First, the hindgut basal contraction rate was recorded by filming each tissue for 60 s. […] After 5 min of incubation at room temperature, 15 μL kinin agonist analog 1728 solution (4×in Ringer solution) was added to the Ringer solution to reach a final concentration of 10 μmol L^−1. After 1 h of incubation, the tissue was filmed again for 60 s.
The contractible hindgut of mosquito consists of a funnel-shaped pylorus located immediately after the posterior midgut, followed by a long, coiled ileum, and a bulbous colon which contains the rectal pads, and a tapering rectal tube at the posterior end.^35 To analyze each video, the hindgut contraction number was counted by observing the contraction occurring at the junction between the pyloric sphincter and the most anterior ileum. The hindgut contraction rate was expressed as the number of contractions observed over 60 s. The fold change in contraction rate was calculated as the contraction rate estimated at 1 h post treatment divided by the basal rate estimated before the treatment with the chemicals. Each treatment was repeated with 30 female mosquitoes independently. All statistical analyses were done by PRISM software (v8, GraphPad). The differences in fold-change of the contraction rates among treatments were analyzed using the nonparametric Kruskal-Wallis test, followed by the Dunn's multiple comparison test. […].

[6] = system: Aedes aegypti kinin receptor; assay: Calcium fluorescence assay on recombinant mosquito kinin receptor (IGKN G12 cell line); type: cell-based; conditions: for calcium response, in words: 100 μmol L^−1
Experimental: Three identified potent small molecule antagonists, and as control, a small molecule of very low antagonistic activity, all identified as part of this study, were tested in the calcium fluorescence assay, as above, for their activity on the cell line expressing the Aedes aegypti kinin receptor (IGKN G12 cell line). Receptor cloning, expression and clonal cell selection were as described previously.^3′ The recombinant tick kinin receptor (BMLK3) was tested simultaneously as positive control for the assay. BMLK3 and IGKN G12 cells were seeded in 96-well-plates (Greiner Bio-One®, B/C 655097) at a density of […] cells in 100 μL maintenance medium. Cells were prepared as described above for the calcium fluorescence assay; and each well was added with 90 μL assay buffer (see Section 2.3, HHBS plus dye efflux inhibitor).
For each compound three 10× concentrations (100, 300, 1000 μmol L^−1) were prepared and 10 μL of each was added manually into one well of each cell line for a final concentration of 10, 30 and 100 […]. After 5 min incubation at room temperature, a kinin receptor agonist peptide, the kinin agonist analog 1728^28 [[Aib]FF[Aib]WGamide, RoyoBiotech, Shanghai, China] was added manually (50 μL; 3× stock in HHBS) into each well for a final concentration of 1 μmol L^−1. The cellular calcium response in RFU was immediately recorded continuously for 60 s with 3 s intervals between reads using a Clariostar plate reader. The average RFU of these 20 reads represented the raw response to each treatment. Three independent replicates were run for each concentration and compound. The percentage of signal reduction with respect to the control that contained solvent and the kinin agonist analog 1728 was calculated using the average RFU registered for the treatment with each small molecule divided by the average RFU recorded for the control (100%). Data analyses were performed with the percentage reduction of the three independent replicates. PRISM (Graphpad, San Diego. CA, USA) was utilized for analysis and graphics.

[7] = molecular target: T1, recombinant tick kinin receptor (BMLK3) (Rhipicephalus microplus, UniProt Q9NHA4); assay: dual-addition intracellular calcium fluorescence assay, antagonist dose-response (inhibition of Rhimi-K-1 response in BMLK3 cells); type: cell-based; conditions: FIG. 6 SAR analysis; BMLK3 CHO-K1 cells stably expressing R. microplus kinin receptor; agonist Rhimi-K-1 (QFSPWGamide) 1 μmol L^−1
T1 construct: intracellular calcium fluorescence; agonist Rhimi-K-1 (QFSPWGamide)
T1 sequence (Q9NHA4 1-397): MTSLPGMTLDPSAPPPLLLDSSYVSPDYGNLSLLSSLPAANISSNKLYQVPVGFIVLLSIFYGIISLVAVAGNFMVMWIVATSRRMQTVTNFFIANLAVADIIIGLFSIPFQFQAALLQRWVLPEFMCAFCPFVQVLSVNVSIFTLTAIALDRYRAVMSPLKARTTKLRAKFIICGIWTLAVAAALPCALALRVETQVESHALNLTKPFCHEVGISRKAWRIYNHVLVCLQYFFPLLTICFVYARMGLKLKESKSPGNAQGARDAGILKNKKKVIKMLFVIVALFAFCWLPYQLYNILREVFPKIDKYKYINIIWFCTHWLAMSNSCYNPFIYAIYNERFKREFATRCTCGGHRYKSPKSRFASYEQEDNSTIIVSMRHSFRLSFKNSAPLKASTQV

[8] = system: Drosophila melanogaster renal organs; conditions: cited from earlier work
[9] = system: Rhodnius prolixus hindgut; conditions: cited from earlier work
[10] = V/O cells, second addition Rhimi-K-1 1 μmol L^−1, read-out: V/O antagonist IC50
[11] = first addition, 20 concentrations 28 nM-25 μM
[12] = second addition Rhimi-K-1 1 μmol L^−1, read-out: BMLK3 IC50
[13] = summary of 36 validated antagonist hits, BMLK3 cells
[14] = summary of 36 validated antagonist hits, vector-only cell (V/O)
[15] = summary of 36 validated antagonist hits, BMLK3 cells, read-out: BMLK3 IC50
[16] = Table 5 analogs, V/O cells, read-out: V/O antagonist IC50
[17] = Table 5 analogs, first addition
[18] = Table 5 analogs, second addition Rhimi-K-1 1 μmol L^−1, read-out: BMLK3 antagonist IC50
[19] = compound 10 μmol L^−1, 1 h after 1728 (data not shown)

Molecule	HDF average % growth inhibition [1] [%]	Inhibitory Efficacy at 12 μM ([4]; BMLK3 cells) [%]	EC50 [4, 13] [µM]	EC50 [2, 14] [µM]	IC50 [2, 14] [µM]	IC50 [4, 15] [µM]	EC50 ([2]; Table 5 analogs, V/O cells) [µM]	IC50 [2, 16] [µM]	effect on hindgut contraction elicited by 1728, in words [5]	other results
Cc1ccc(-c2csc3ncnc(NCc4ccco4)c23)cc1 [SACC-0033457]	8.023	55.73	0.122	–	–	–	–	–	–	EC50 ([2]; V/O cells, first addition): 11.5 µM; IC50 [2, 10]: 0.679 µM; antagonist Io (%) [3]: 63%; EC50 [4, 11]: 0.122 µM; IC50 [4, 12]: 14.8 µM
CCCC[n+]1c(/C=C2/C=CN(CC)c3ccc(C)cc32)ccc2ccccc21 [SACC-0048555]	−9.767	107.39	8.88	12.8	3.59	1.51	–	–	–	EC50 ([2]; V/O cells, first addition): 12.8 µM; IC50 [2, 10]: 3.59 µM; antagonist Io (%) [3]: 54%; activity type in dose-response assay, in words ([4]; BMLK3 cells): full agonist; EC50 [4, 11]: 8.88 µM; IC50 [4, 12]: 1.51 µM
O=C1C(=Cc2ccccc2)SC(=S)N1NS(=O)(=O)c1ccccc1 [SACC-0412060]	6.873	91.75	9.57	9.27	0.538	1.89	9.27	0.538	inhibited the increased rate of muscle contraction	EC50 [4, 17]: 9.57 µM; IC50 [4, 18]: 1.89 µM; hindgut contraction rate, in words [5, 19]: no increase in the hindgut contraction rate was observed; effect on hindgut contraction elicited by 1728, in words ([5]; listed as SACC-0412000): significantly reduced the mobility of the hindgut
Cc1ccc(S(=O)(=O)NN2C(=O)C(=Cc3cccc4ccccc34)SC2=S)cc1 [SACC-0412062]	8.117	50.31	–	6.26	7.36	–	6.26	7.36	inhibited the increased rate of muscle contraction	–
Cc1ccc(S(=O)(=O)NN2C(=O)C(=Cc3ccc(C(=O)O)cc3)SC2=S)cc1 [SACC-0412064]	−7.067	0.31	13	17.4	1.47	0.118	17.4	1.47	did not differ	activity type in dose-response assay, in words ([4]; BMLK3 cells): very weak partial antagonists; EC50 [4, 17]: 13 µM; IC50 [4, 18]: 0.118 µM; calcium response, in words [6]: did not antagonize the calcium response
CCOc1cc(C=C2SC(=S)N(NS(=O)(=O)c3ccc(C)cc3)C2=O)ccc1O [SACC-0412066]	2.02	79.17	–	> 25	1.04	–	> 25	1.04	inhibited the increased rate of muscle contraction	hindgut contraction rate, in words [5, 19]: no increase in the hindgut contraction rate was observed; effect on hindgut contraction elicited by 1728, in words ([5]; listed as -10412066): significantly reduced the mobility of the hindgut; effect on hindgut contraction elicited by 1728, in words ([5]; listed as SACC-0412006): did not observe any increase in the hindgut contraction rate; inhibition of response compared to control ([6]; 30 μmol L^−1, 1728 1 μmol L^−1): 84%; calcium response, in words [6]: elicited a strong calcium response
C1C1═CC═C(\C═C2\SC(═O)N(NS(═O)(═O)C3═CC═CC═C3)C2═S)C═C1 [SACC-0064443]	–	–	–	–	–	–	–	–	–	IC50 [7]: 0.66 µM
NPFHAWG-NH2 [aedeskinin 2, reference compound]	–	–	–	–	–	–	–	–	–	hindgut contraction rate, in words ([5]; 1 μmol L^−1, 1 h (data not shown)): increase of hindgut contraction rate
[Aib]FF[Aib]WGamide [Molecule 1728]	–	–	–	–	–	–	–	–	–	increase of fluid secretion from renal organs, in words ([8]; 10^−7 M range): not active; concentration active in diuretic assays [8]: 25 µM; concentration inducing hindgut contraction [9]: 10^−16 M; increase of contraction rate, solvent plus 1728 group ([5]; 1728 10 μmol L^−1, solvent control of SACC-0412062 test (FIG. 8B), 1 h): two-fold
